Laboratory results taken from patent publication US20040143025A1, “Carbon monoxide generating compunds for treatment of vascular, inflammatory and immune disorders” (priority 2002, published 2004).

Legend:
allogeneic OLTs = assay: In vivo detection of apoptosis in OLTs; set-up: species or system rat; conditions: day 10 post-transplant
Method: In vivo detection of apoptosis. A commercial in situ histochemical assay (Klenow-FragEL, Oncogene Research Products, Cambridge, Mass.) was performed to detect the DNA fragmentation characteristic of apoptosis in formalin-fixed paraffin-embedded tissue sections. In this assay, Kienow binds to exposed ends of DNA fragments generated in response to apoptotic signals and catalyzes the template-dependent addition of biotin-labeled and unlabeled deoxynucleotides. Biotinylated nucleotides are detected using a streptavidin-horse radish peroxidase (HRP) conjugate. Diaminobenzidine reacts with the labeled sample to generate an insoluble colored substrate at the site of DNA fragmentation. Counterstaining with methyl green aids in the morphological evaluation and characterization of normal and apoptotic cells. The results were scored semi-quantitatively by averaging the number of apoptotic cells per microscopic field at 200× magnification. Six fields were evaluated per tissue sample. All data are expressed as mean±SD.

[1] = system: LEW.1W aortic allografts in LEW.1A rats; assay: Chronic aorta allograft rejection model, morphometry of intima thickness; format: in vivo, rat; conditions: day 30
Method: Animals and aorta transplantation. Transplantations were performed using 250 g inbred male Lewis 1W rats (LEW. 1W, haplotype RT1^u) as donors and LEW.1A rats (haplotype RT1^a) as recipients (CERJ, Le Genest St. Isle, France). These animals are completely mismatched for the entire MHC region. Animal procedures followed European guidelines for animal experimentation. The descending thoracic aortas were harvested, perfused with saline and anastomosed to the recipient's abdominal aorta below the renal arteries and above the aortic bifurcation. Anastomosis was performed in a termino-lateral fashion and the recipient abdominal aorta was ligated between the two-graft anastomosis. […]
MC (Sigma, St. Louis, Mo.) was diluted in olive oil and administered orally on a daily basis (from day 0 to 30) at 500 mg/kg. […] COHb levels were evaluated in heparinized venous blood using the VOXimeter sensor (A-VOX Systems, San Antonio, Tex.) and expressed as the percentage of total hemoglobin. Bicarbonates, soluble CO2, total CO2 and pH were measured using standard clinical biochemistry techniques (Laboratory of Biochemistry, University Hospital of Nantes).
Recombinant adenovirus and gene transfer into the aorta. […] Quantification of infectious adenoviral particles was determined by counting the number of spots (corresponding to individual viral replication events) on infected 293 cells. […]

ClCCl [methylene chloride]
TUNEL+ cells/field in allogeneic OLTs (allogeneic OLTs): 4.5±2.3
intimal thickening (mean±SEM) ([1]; allogeneic aortic grafts, MC 500 mg/kg orally daily, adenoviruses 10^10 IP into donor aorta): 8.3±4.5%
infiltrating cells in adventitia (HES) [1]: moderate reduction
